Assays:
[1] = Agonist activity at MRGPRX4 83S expressed in human HEK293 cells co- expressing Gq assessed as change in intracellular calcium level by calcium mobilization assay; assay type: cell-based
[2] = Agonist activity at MRGPRX4 83L expressed in human HEK293 cells co- expressing Gq assessed as change in intracellular calcium level by calcium mobilization assay; assay type: cell-based

SMILES	EC50 [1] [µM]	EC50 [2] [µM]
C[C@H](CCC(=O)O)[C@H]1CC[C@H]2[C@@H]3CC[C@@H]4C[C@H](O)CC[C@]4(C)[C@H]3C[C@H](O)[C@]12C [DEOXYCHOLIC ACID]	16.9	
CC(C)[C@H]1CC[C@H](C(=O)N[C@H](Cc2ccccc2)C(=O)O)CC1 [NATEGLINIDE]	> 10	
C[C@H](CCC(=O)NCCS(=O)(=O)O)[C@H]1CC[C@H]2[C@@H]3CC[C@@H]4C[C@H](O)CC[C@]4(C)[C@H]3C[C@H](O)[C@]12C [TAURODEOXYCHOLIC ACID]	> 10	> 10

Other lines, results leading:

EC50 [1] [µM]	EC50 [2] [µM]	SMILES
0.0112	0.435	COc1cccc(CCc2nc3c([nH]2)c(=O)n(CC#N)c(=O)n3CCCCP(=O)(O)O)c1
13.3	0.00656	CC12CC3CC(C)(C1)CC(C(=O)N[C@H](Cc1ccccc1)C(=O)O)(C3)C2
